Results as given in PubChem BioAssay AID1963844 (Molecular Pharmacology Branch, DTP, NCI, 2024).
Values joined by “and” are separate entries in the source; they are usually repeats but may differ in a detail not shown here. Identical values can stand only once.

System: 422866-222-R5-J1-PDC complex spheroid viability
Experiment: Anticancer human tumor 422866-222-R5-J1-PDC patient-derived pancreatic adenocarcinoma cell line growth inhibition [POLQ]
Settings: for viability, T/C: stronger effect = lower value
Method: Multicellular complex tumor spheroid response to Polymerase (POL) inhibitors (novobiocin, ART-558, RP6685) in combination with a variety of drugs and investigational agents in selected tumor cell lines
The POL inhibitors (novobiocin, ART-558, and RP6685) were evaluated both individually and in combination with standard of care and investigational anticancer small molecules within a complex spheroid model of solid tumors. . Complex spheroids include a stromal component modeled by human endothelial cells (HUVEC) and fibroblasts modeled by human mesenchymal stem cells (MSCs). The concentration ranges selected for each drug and investigational agent were based upon clinically achievable concentrations if the clinical Cmax of the agent was known.
Compounds. The drugs and investigational agents: novobiocin (NSC847541), ART-558 (NSC835418), RP-6685 (NSC848927), peposertib (NSC802822), ceralasertib (NSC780249), elimusertib (NSC800525), camonsertib (NSC841442), AZD-1390 (NSC803789), olaparib (NSC753686), talazoparib (NSC767125), rucaparib (NSC756644), sotorasib (NSC818433), MRTX-1133 (NSC836407), SN-38 (NSC673596), topotecan (NSC609699), epotoside (NSC141540), doxorubicin (NSC123127), gemcitabine (NSC613327), 5-fluorouracil (NSC19893), paclitaxel (NSC125973), vemurafenib (NSC761431), MSA-2 (NSC828583), SN-011 (NSC837082), adavosertib (NSC754352), prexasertib (NSC758257), carboplatin (NSC241240) and oxaliplatin (NSC266046), were obtained from the National Cancer Institute (NCI) Developmental Therapeutics Program Chemical Repository (21). The FDA-approved anticancer drug set is available from the Developmental Therapeutics Program at https://dtp.cancer.gov/organization/dscb/obtaining/. […] The stock solutions were prepared in dimethyl sulfoxide (DMSO, Sigma-Aldrich, St. Louis, MO, cat. D2650), except for the platinum compounds which were prepared in saline (Quality Biological, Gaithersburg, MD, cat. 114-055-101), at 800-fold the tested concentration and stored at -70 degrees C prior to their use. All drugs and investigational agents were tested over a range starting from a high concentration at or near the clinical Cmax and decreasing in half-log increments. If the clinical Cmax for an agent had not been determined, the highest concentration tested was 10 microM, except for SN-38, which was tested at a high concentration of 1 microM.
Cell Culture. All cells were maintained in an incubator at 37 degrees C and 5% CO2 with 95% humidity. The PDC lines were cultured according to standard operating procedures established by the NCI PDMR (https://pdmr.cancer.gov). Table 3 of the manuscript, lists the cell lines along with the number of the three cell types plated to form the mct-spheroids and media for tumor cell growth. After thawing, all PDC lines, except 997537-175-T-J1-PDC and 415267-285-R-J2-PDC, were cultured in Matrigel-coated flasks prepared with a working solution of 1X Ham's F-12 nutrient mix, without supplementation (Thermo Fisher Scientific, cat. 11765054), 100 U/mL penicillin-streptomycin (Thermo Fisher Scientific, cat. 15140122), and 2.5% Matrigel (Corning Inc., Corning, NY, cat. 354248) for the first three passages. The two PDC lines 997537-175-T-J1-PDC and 415267-285-R-J2-PDC were cultured on uncoated flasks. The 857933-349-R-J2-PDC line was cultured in 6C/Colon 1B media containing advanced DMEM/F-12 (Thermo Fisher Scientific, cat. 12634028), 10 mM HEPES (Thermo Fisher Scientific, cat. 15630080), 1X GlutaMAX supplement (Thermo Fisher Scientific, cat. 35050061), 0.1 mg/mL primocin (InvivoGen, San Diego, CA, cat. ant-pm-2), 10% defined fetal bovine serum, heat inactivated (HyClone Laboratories Inc., Logan, UT, cat. SH30070.03HI), 50% L-WRN conditioned media (ATCC, cat. CRL-3276), 1.25 mM N-Acetyl-L-cysteine (Sigma-Aldrich, cat. A9165), 10 mM nicotinamide (Sigma-Aldrich, cat. N0636), 1X B-27 supplement (Thermo Fisher Scientific, cat. 17504044), 1X N-2 supplement (Thermo Fisher Scientific, cat. […]

[1] = curve of first compound, second compound 0.0316 µM
[2] = curve of first compound, second compound 0.1 µM
[3] = curve of first compound, second compound 0.316 µM
[4] = curve of first compound, second compound 1 µM
[5] = curve of first compound, second compound 3.16 µM
[6] = curve of first compound, second compound 10 µM
[7] = second compound 0.0316 µM, first compound 0.0316 µM
[8] = second compound 0.0316 µM, first compound 0.1 µM
[9] = second compound 0.0316 µM, first compound 0.316 µM
[10] = second compound 0.0316 µM, first compound 1 µM
[11] = second compound 0.0316 µM, first compound 3.16 µM
[12] = second compound 0.0316 µM, first compound 10 µM
[13] = second compound 0.1 µM, first compound 0.0316 µM
[14] = second compound 0.1 µM, first compound 0.1 µM
[15] = second compound 0.1 µM, first compound 0.316 µM
[16] = second compound 0.1 µM, first compound 1 µM
[17] = second compound 0.1 µM, first compound 3.16 µM
[18] = second compound 0.1 µM, first compound 10 µM
[19] = second compound 0.316 µM, first compound 0.0316 µM
[20] = second compound 0.316 µM, first compound 0.1 µM
[21] = second compound 0.316 µM, first compound 0.316 µM
[22] = second compound 0.316 µM, first compound 1 µM
[23] = second compound 0.316 µM, first compound 3.16 µM
[24] = second compound 0.316 µM, first compound 10 µM
[25] = second compound 1 µM, first compound 0.0316 µM
[26] = second compound 1 µM, first compound 0.1 µM
[27] = second compound 1 µM, first compound 0.316 µM
[28] = second compound 1 µM, first compound 1 µM
[29] = second compound 1 µM, first compound 3.16 µM
[30] = second compound 1 µM, first compound 10 µM
[31] = second compound 3.16 µM, first compound 0.0316 µM
[32] = second compound 3.16 µM, first compound 0.1 µM
[33] = second compound 3.16 µM, first compound 0.316 µM
[34] = second compound 3.16 µM, first compound 1 µM
[35] = second compound 3.16 µM, first compound 3.16 µM
[36] = second compound 3.16 µM, first compound 10 µM
[37] = second compound 10 µM, first compound 0.0316 µM
[38] = second compound 10 µM, first compound 0.1 µM
[39] = second compound 10 µM, first compound 0.316 µM
[40] = second compound 10 µM, first compound 1 µM
[41] = second compound 10 µM, first compound 3.16 µM
[42] = second compound 10 µM, first compound 10 µM
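Also: spheroids exposed to compounds for one week before readout.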
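For viability, T/C in this document: percent of DMSO vehicle wells luminescence so 100% = untreated viability.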

## CC1COCCN1c1cc(C2(S(C)(=N)=O)CC2)nc(-c2ccnc3[nH]ccc23)n1 (configuration not stated) + Cc1cccc(N(C)C(=O)C2C(O)CCN2c2nc(C)cc(C(F)(F)F)c2C#N)c1
[1]
  IC50: > 10000 nM
[2]
  IC50: 2930 nM
[3]
  IC50: 3360 nM
[4]
  IC50: 4210 nM
[5]
  IC50: 5460 nM
[6]
  IC50: 4410 nM
[7]
  viability, T/C: 92.5%
[8]
  viability, T/C: 93.2%
[9]
  viability, T/C: 98.9%
[10]
  viability, T/C: 70.1%
[11]
  viability, T/C: 50.9%
[12]
  viability, T/C: 50.5%
[13]
  viability, T/C: 101%
[14]
  viability, T/C: 121%
[15]
  viability, T/C: 98.9%
[16]
  viability, T/C: 74.4%
[17]
  viability, T/C: 45.8%
[18]
  viability, T/C: 46.3%
[19]
  viability, T/C: 110%
[20]
  viability, T/C: 110%
[21]
  viability, T/C: 90.3%
[22]
  viability, T/C: 83.2%
[23]
  viability, T/C: 47.1%
[24]
  viability, T/C: 33.8%
[25]
  viability, T/C: 108%
[26]
  viability, T/C: 97.6%
[27]
  viability, T/C: 91.5%
[28]
  viability, T/C: 76.8%
[29]
  viability, T/C: 47.5%
[30]
  viability, T/C: 45.8%
[31]
  viability, T/C: 103%
[32]
  viability, T/C: 103%
[33]
  viability, T/C: 90.6%
[34]
  viability, T/C: 73.8%
[35]
  viability, T/C: 60.4%
[36]
  viability, T/C: 40.3%
[37]
  viability, T/C: 100%
[38]
  viability, T/C: 82%
[39]
  viability, T/C: 93.1%
[40]
  viability, T/C: 59.2%
[41]
  viability, T/C: 59.5%
[42]
  viability, T/C: 37.4%

## COc1cccc(OCCCN)c1-c1cc(Nc2cnc(C#N)cn2)n[nH]1
Compound 0.00316 µM
  viability, T/C: 61.5% and 71.1% and 79.5%
Compound 0.01 µM
  viability, T/C: 37.6% and 43.8% and 38%
Compound 0.0316 µM
  viability, T/C: 38.3% and 35% and 28.3%
Compound 0.1 µM
  viability, T/C: 38.7% and 31.6% and 31.1%
Compound 0.316 µM
  viability, T/C: 34% and 37.7% and 24.6%
Compound 1 µM
  viability, T/C: 35.8% and 33.7% and 48.9%
Curve of compound
  IC50: 5.56 nM and 7.54 nM and 7.07 nM

## COc1cccc2c1C(=O)c1c(O)c3c(c(O)c1C2=O)CC(O)(C(=O)CO)CC3OC1CC(N)C(O)C(C)O1 (configuration not stated) + Cc1cccc(N(C)C(=O)C2C(O)CCN2c2nc(C)cc(C(F)(F)F)c2C#N)c1
[1]
  IC50: 160 nM
[2]
  IC50: 114 nM
[3]
  IC50: 152 nM
[4]
  IC50: 202 nM
[5]
  IC50: 204 nM
[6]
  IC50: 133 nM
[7]
  viability, T/C: 67.2%
[8]
  viability, T/C: 56.3%
[9]
  viability, T/C: 41.4%
[10]
  viability, T/C: 24.5%
[11]
  viability, T/C: 32.9%
[12]
  viability, T/C: 30.1%
[13]
  viability, T/C: 66.6%
[14]
  viability, T/C: 51.3%
[15]
  viability, T/C: 37%
[16]
  viability, T/C: 22.6%
[17]
  viability, T/C: 27.4%
[18]
  viability, T/C: 34.4%
[19]
  viability, T/C: 57.6%
[20]
  viability, T/C: 56.7%
[21]
  viability, T/C: 37.3%
[22]
  viability, T/C: 25.6%
[23]
  viability, T/C: 26.2%
[24]
  viability, T/C: 36.4%
[25]
  viability, T/C: 65.5%
[26]
  viability, T/C: 60.8%
[27]
  viability, T/C: 42.4%
[28]
  viability, T/C: 24.5%
[29]
  viability, T/C: 28.6%
[30]
  viability, T/C: 36.6%
[31]
  viability, T/C: 62.3%
[32]
  viability, T/C: 58.5%
[33]
  viability, T/C: 44.3%
[34]
  viability, T/C: 30.1%
[35]
  viability, T/C: 30.2%
[36]
  viability, T/C: 36.2%
[37]
  viability, T/C: 68.2%
[38]
  viability, T/C: 53%
[39]
  viability, T/C: 40.5%
[40]
  viability, T/C: 25.9%
[41]
  viability, T/C: 24.1%
[42]
  viability, T/C: 40.2%

## CC(C)n1c(=O)n(C)c2cnc3cc(F)c(-c4ccc(OCCCN5CCCCC5)nc4)cc3c21
Compound 0.0316 µM
  viability, T/C: 105% and 90.3% and 107%
Compound 0.1 µM
  viability, T/C: 98.6% and 91.8% and 89.1%
Compound 0.316 µM
  viability, T/C: 110% and 103% and 104%
Compound 3.16 µM
  viability, T/C: 93.9% and 88.3% and 79.2%
Compound 10 µM
  viability, T/C: 70.4% and 52.7% and 75.8%
Curve of compound
  IC50: > 10000 nM
